The values that follow come from US9119780B2, “Triggerable compositions for two-stage, controlled release of proactive chemistry” (Kimberly-Clark Worldwide, Inc., priority 2013, dated 2015).

The conditions of the data set: exposure to liquid water under ambient conditions.

Each structure is given as a SMILES string.

Source text: The relative hydrophobicity and hydrophilicity of the R groups can be easily adjusted to tailor the hydrolysis rate upon exposure to aqueous medium, and therefore the release rate of the active R*OH.

With `CC1CCC(C(C)C)C(OC(=O)c2ccc[n+](C)c2)C1.[Cl-]` (centres unmarked), the hydrolysis rate result is on record as “hydrolyzed rapidly”.

Turning to `Cc1ccc(C(C)C)c(OC(=O)c2ccc[n+](C)c2)c1.[Cl-]`, the hydrolysis rate entry is recorded as “hydrolyzed rapidly”.
